How the values were obtained:
Assay in all cases: Bliss excess, mean over the matrix (fraction); higher = more synergy
[1] = tested on: AMO-1 (Plasma Cell Myeloma)
Summary of the method: (§1)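 Cell lines in DMEM/F12 or RPMI with 10% FBS were plated in 1536-well plates, held 24 hours at 37°C, 5% CO2, then given two-drug dose matrices for 72 hours (DMSO typically 0.2%). Viability was read by CellTiter-Glo 2.0 luminescence and scaled as inhibition from 0 (vehicle wells) to 1 (blank wells). Combination Emax is the second-highest inhibition in the matrix; Bliss excess is observed combination effect minus expected EA + EB − EA·EB, EA and EB being single-agent effects.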

[2] = tested on: NCI-H1915 (Non-Small Cell Lung Carcinoma)
Summary of the method: as §1

[3] = tested on: NEC8 (Other Solid Carcinomas)
Summary of the method: as §1

[4] = tested on: Hs-766T (Pancreatic Carcinoma)
Summary of the method: as §1

[5] = tested on: Ca9-22 (Head and Neck Carcinoma)
Summary of the method: as §1

[6] = tested on: EFM-19 (Breast Carcinoma)
Summary of the method: as §1

[7] = tested on: SW13 (Other Solid Carcinomas)
Summary of the method: as §1

[8] = tested on: HOP-62 (Lung Adenocarcinoma)
Summary of the method: as §1

[9] = tested on: RF-48 (B-Cell Non-Hodgkin's Lymphoma)
Summary of the method: as §1

[10] = tested on: OSC-20 (Oral Cavity Carcinoma)
Summary of the method: as §1

YH-13 (Glioblastoma) = tested on: YH-13 (Glioblastoma)
Summary of the method: as §1

[11] = tested on: SU8686 (Pancreatic Carcinoma)
Summary of the method: as §1

D-263MG (Glioblastoma) = tested on: D-263MG (Glioblastoma)
Summary of the method: as §1

[12] = tested on: NUGC-3 (Gastric Carcinoma)
Summary of the method: as §1

TGW (Neuroblastoma) = tested on: TGW (Neuroblastoma)
Summary of the method: as §1

[13] = tested on: HGC-27 (Gastric Carcinoma)
Summary of the method: as §1

NB69 (Neuroblastoma) = tested on: NB69 (Neuroblastoma)
Summary of the method: as §1

[14] = tested on: Caov-4 (Ovarian Carcinoma)
Summary of the method: as §1

[15] = tested on: NCI-H358 (Lung Adenocarcinoma)
Summary of the method: as §1

[16] = tested on: NCI-H727 (Other Solid Carcinomas)
Summary of the method: as §1

| SMILES | Bliss excess [1] | Bliss excess [2] | Bliss excess [3] | Bliss excess [4] | Bliss excess [5] | Bliss excess [6] | Bliss excess [7] | Bliss excess [8] | Bliss excess [9] | Bliss excess [10] | Bliss excess (YH-13 (Glioblastoma)) | Bliss excess [11] | Bliss excess (D-263MG (Glioblastoma)) | Bliss excess [12] | Bliss excess (TGW (Neuroblastoma)) | Bliss excess [13] | Bliss excess (NB69 (Neuroblastoma)) | Bliss excess [14] | Bliss excess [15] | Bliss excess [16] |
| --- | --- | --- | --- | --- | --- | --- | --- | --- | --- | --- | --- | --- | --- | --- | --- | --- | --- | --- | --- | --- |
| NC1(C(=O)N[C@@H](CCO)c2ccc(Cl)cc2)CCN(c2ncnc3[nH]ccc23)CC1 [Capivasertib] + COc1nnc2ccc(N3CCC(c4ccc(OCCN5CCN(C)C(=O)[C@H]5C)cc4)CC3)nn12 [AZD5153] (first compound max 10 µM, 7x7, partner max 1 µM) | -0.0336 | 0.0289 | 0.0363 | 0.0126 | -0.0073 | 0.0634 | -0.0086 | -0.0633 | -0.0275 | 0.0093 | 0.0553 | -0.0359 | 0.0459 | 0.0564 | -0.0364 | 0.0097 | -0.0299 | -0.0146 | -0.0514 | 0.0278 |
| CC(=O)Nc1cccc(-n2c(=O)n(C3CC3)c(=O)c3c(Nc4ccc(I)cc4F)n(C)c(=O)c(C)c32)c1 [Trametinib] + Cc1nc(-c2cn3c(n2)-c2ccc(-c4cnn(C(C)(C)C(N)=O)c4)cc2OCC3)n(C(C)C)n1 [Taselisib] (first compound max 1 µM, 7x7, partner max 10 µM) | 0.316 | 0.045 | 0.112 | 0.0113 | 0.131 | -0.0544 | 0.316 | 0.0978 | 0.0627 | 0.0925 | 0.0704 | 0.094 | 0.132 | 0.104 | 0.085 | -0.062 | 0.0304 | 0.0567 | 0.095 | -0.0129 |
| COc1nnc2ccc(N3CCC(c4ccc(OCCN5CCN(C)C(=O)[C@H]5C)cc4)CC3)nn12 [AZD5153] + CC1(C)CCC(CN2CCN(c3ccc(C(=O)NS(=O)(=O)c4ccc(NCC5CCOCC5)c([N+](=O)[O-])c4)c(Oc4cnc5[nH]ccc5c4)c3)CC2)=C(c2ccc(Cl)cc2)C1 [Venetoclax] (first compound max 1 µM, 7x7, partner max 1 µM) | -0.0483 | -0.0659 | -0.0661 | -0.0487 | -0.0321 | -0.0442 | -0.0458 | -0.0716 | -0.0312 | -0.0554 | -0.0441 | -0.0501 | -0.0613 | -0.0746 | 0.0081 | -0.0808 | 0.0488 | 0.0179 | -0.049 | -0.0558 |
| COc1cccc(OCCCN)c1-c1cc(Nc2cnc(C#N)cn2)n[nH]1 [Prexasertib] + CCc1c2c(nc3ccc(O)cc13)-c1cc3c(c(=O)n1C2)COC(=O)[C@]3(O)CC [SN-38] (first compound max 1 µM, 7x7, partner max 0.3 µM) | -0.04 | 0.0086 | 0.0129 | -0.0063 | 0.0163 | 0.155 | 0.0459 | -0.0279 | -0.0572 | -0.0477 | 0.0079 | 0.02 | 0.0688 | 0.0136 | -0.0284 | 0.0388 | -0.0556 | -0.0332 | -0.0212 | -0.0425 |
| Cn1cnc2c(F)c(Nc3ccc(Br)cc3Cl)c(C(=O)NOCCO)cc21 [Selumetinib] + C=CCn1c(=O)c2cnc(Nc3ccc(N4CCN(C)CC4)cc3)nc2n1-c1cccc(C(C)(C)O)n1 [AZD1775] (first compound max 10 µM, partner max 1 µM) | -0.0108 | -0.0462 | 0.0185 | -0.0559 | 0.0321 | -0.0121 | -0.0576 | -0.0468 | -0.0372 | -0.019 | -0.0489 | -0.0089 | -0.0567 | -0.0757 | -0.0219 | -0.052 | -0.0004 | -0.0097 | -0.0471 | -0.0891 |
| CCN(CCO)CCCOc1ccc2c(Nc3cc(CC(=O)Nc4cccc(F)c4)[nH]n3)ncnc2c1 [AZD2811] + C=CCn1c(=O)c2cnc(Nc3ccc(N4CCN(C)CC4)cc3)nc2n1-c1cccc(C(C)(C)O)n1 [AZD1775] (first compound max 1 µM, partner max 1 µM) | -0.0276 | 0.0056 | 0.0471 | -0.0445 | 0.027 | -0.0269 | 0.0821 | -0.0287 | 0.0041 | -0.0449 | -0.003 | -0.0166 | 0.0698 | 0.0104 | -0.0083 | -0.0176 | -0.0383 | -0.0258 | -0.0312 | -0.0909 |
| CS(=O)(=O)CCNCc1ccc(-c2ccc3ncnc(Nc4ccc(OCc5cccc(F)c5)c(Cl)c4)c3c2)o1 [Lapatinib] + C[C@@H](Oc1cc(-c2cnn(C3CCNCC3)c2)cnc1N)c1c(Cl)ccc(F)c1Cl [Crizotinib] (first compound max 10 µM, 7x7, partner max 10 µM) | -0.0458 | -0.0169 | -0.0234 | -0.0535 | -0.0383 | -0.0109 | -0.0291 | -0.0466 | -0.0441 | -0.0542 | -0.0388 | -0.0299 | -0.0621 | -0.142 | -0.0659 | -0.0903 | -0.0592 | -0.0451 | -0.0522 | -0.0097 |
| CC(=O)c1c(C)c2cnc(Nc3ccc(N4CCNCC4)cn3)nc2n(C2CCCC2)c1=O [Palbociclib] + Cn1cnc2c(F)c(Nc3ccc(Br)cc3Cl)c(C(=O)NOCCO)cc21 [Selumetinib] (first compound max 10 µM, 7x7, partner max 10 µM) | 0.0844 | -0.034 | -0.0233 | -0.0221 | 0.0539 | -0.0313 | 0.044 | -0.0079 | -0.0489 | -0.0566 | 0.0093 | -0.0971 | -0.0077 | -0.0178 | 0.0125 | 0.0403 | 0.0829 | -0.0247 | -0.0489 | -0.0139 |
| COc1cccc(OCCCN)c1-c1cc(Nc2cnc(C#N)cn2)n[nH]1 [Prexasertib] + O=C(c1cc(Cc2n[nH]c(=O)c3ccccc23)ccc1F)N1CCN(C(=O)C2CC2)CC1 [Olaparib] (first compound max 1 µM, 7x7, partner max 10 µM) | -0.0584 | -0.0002 | 0.0104 | -0.032 | -0.007 | -0.0094 | 0.0024 | -0.0319 | -0.0216 | -0.013 | -0.0598 | -0.0504 | -0.0665 | -0.143 | -0.0665 | 0.044 | -0.0313 | -0.0542 | -0.0809 | -0.259 |
| COc1cccc(OCCCN)c1-c1cc(Nc2cnc(C#N)cn2)n[nH]1 [Prexasertib] + C[C@@H]1COCCN1C2=NC(=NC(=C2)C3(CC3)[S@](=N)(=O)C)C4=C5C=CNC5=NC=C4 [AZD6738] (first compound max 1 µM, 7x7, partner max 10 µM) | -0.0361 | -0.0396 | -0.009 | 0.0101 | -0.0024 | -0.0296 | 0.0627 | 0.0375 | -0.0175 | -0.0583 | -0.018 | -0.0315 | -0.019 | -0.019 | -0.019 | -0.057 | -0.0228 | -0.0123 | -0.021 | -0.0047 |
| Cc1c2c(nn1C)CSCc1cc(n(C)n1)CSc1cc(c3ccccc3c1)OCCCc1c(C(=O)O)n(C)c3c-2c(Cl)ccc13 [AZD5991] + C1CN(CCC1(C(=O)N[C@@H](CCO)C2=CC=C(C=C2)Cl)N)C3=NC=NC4=C3C=CN4 [Capivasertib] (first compound max 1 µM, 7x7, partner max 3 µM) | 0.0178 | 0.0103 | 0.0812 | -0.0994 | -0.0261 | 0.0003 | 0.0419 | -0.0422 | 0.0285 | 0.0036 | -0.0229 | -0.0177 | 0.083 | -0.0051 | 0.0078 | 0.0232 | -0.0071 | 0.0354 | -0.0179 | 0.0322 |
| CN(C)CCCOc1ccc(-c2ccc3ncc4c(c3c2)n(C2CCOCC2)c(=O)n4C)cn1 [AZD0156] + C[C@@H]1COCCN1C2=NC(=NC(=C2)C3(CC3)[S@](=N)(=O)C)C4=C5C=CNC5=NC=C4 [AZD6738] (first compound max 1 µM, 7x7, partner max 10 µM) | 0.0146 | 0.0366 | 0.072 | 0.0079 | 0.0218 | -0.0264 | 0.0112 | -0.0232 | 0.0487 | -0.0085 | 0.0019 | 0.0025 | 0.0366 | 0.064 | 0.0307 | 0.0357 | -0.069 | -0.0388 | 0.0219 | 0.0226 |
| Cn1cnc2c(F)c(Nc3ccc(Br)cc3Cl)c(C(=O)NOCCO)cc21 [Selumetinib] + CC(C)n1c(=O)n(C)c2cnc3cc(F)c(-c4ccc(OCCCN5CCCCC5)nc4)cc3c21 [AZD1390] (first compound max 10 µM, 7x7, partner max 0.3 µM) | 0.0291 | -0.061 | -0.0268 | -0.0215 | 0.0337 | -0.0264 | 0.0129 | -0.0451 | -0.056 | -0.0269 | -0.0342 | -0.0255 | -0.0352 | -0.0347 | -0.0393 | -0.0129 | -0.0538 | -0.0382 | -0.03 | -0.0229 |
| Cc1c2c(nn1C)CSCc1cc(n(C)n1)CSc1cc(c3ccccc3c1)OCCCc1c(C(=O)O)n(C)c3c-2c(Cl)ccc13 [AZD5991] + Cc1cc2ncnn2cc1Nc1ncc2c(n1)n(C1CCOCC1)c(=O)n2C [AZD7648] (first compound max 1 µM, 7x7, partner max 10 µM) | -0.0215 | -0.0226 | -0.0056 | -0.0936 | 0.0048 | -0.0215 | 0.0165 | -0.0758 | -0.0115 | -0.0567 | -0.091 | -0.0366 | 0.0046 | -0.0237 | -0.03 | -0.0131 | -0.0009 | 0.0024 | -0.0836 | -0.0833 |
| COc1cccc(OCCCN)c1-c1cc(Nc2cnc(C#N)cn2)n[nH]1 [Prexasertib] + Cc1cc2ncnn2cc1Nc1ncc2c(n1)n(C1CCOCC1)c(=O)n2C [AZD7648] (first compound max 1 µM, 7x7, partner max 10 µM) | -0.004 | -0.008 | 0 | 0.0183 | -0.0231 | -0.0676 | 0.0009 | -0.0063 | -0.0549 | 0.0115 | -0.0146 | -0.0227 | -0.0394 | -0.0129 | -0.0512 | -0.0235 | 0.0182 | -0.0361 | -0.0438 | -0.022 |

Source: the supplement of paper PMC11061612
